The text below walks through data of US10512637B2, “Use of inhibitor of cystine-glutamate transporter” (CHINA MEDICAL UNIVERSITY, priority 2015, dated 2019).

One assay relates to alcohol-dependent mice. As to the kind of experiment: Free-choice two-bottle drinking after chronic alcohol exposure. The class given is in vivo, C57BL/6J mice. The settings on record: WT mice after chronic alcohol exposure; treatment for 7 days; sulfasalazine 15 mg/kg/day i.p., sorafenib 30 mg/kg i.p., regorafenib 30 mg/kg i.p.; compared to control vehicle (DMSO); FIG. 2B. The procedure:
Data are means±SD (n=6-8). *P<0.0001 compared to water. ^#P<0.0001 compared to WT mice or vehicle treatment.
(§1) The concentration of alcohol was increased every fourteenth day. […] Intakes were recorded every day.

For assay [1], the system named is TUNEL-positive cells in frontal cortex. The assay is described as follows: TUNEL staining of brain after chronic alcohol exposure. Format: in vivo, C57BL/6J mice. To be noted: WT mice; treatment for 14 days; sulfasalazine 15 mg/kg/day i.p., sorafenib 30 mg/kg i.p., regorafenib 30 mg/kg i.p.; compared to vehicle; FIG. 4B. The procedure:
as §1

In another assay the test system is wild type cortical cells. The assay is described as follows: Annexin V apoptosis assay in primary cortical cells exposed to alcohol or cocaine. The class given is cell-based, C57BL/6J mouse. The settings on record: alcohol or cocaine incubation, 18 hours; sulfasalazine 500 μM, sorafenib 10 μM, regorafenib 10 μM; compared to vehicle (DMSO); FIG. 6. The method, then:
Data are means±SD (n=3). *P<0.001 compared to vehicle group.
Primary cortical cells were prepared from cerebral cortices of wild-type C57BL/6J or xCT homozygous knockout (xCT KO) mouse embryos in embryonic day 17 as previously described in Shyu, W. C., et al., Secretoneurin promotes neuroprotection and neuronal plasticity via the Jak2/Stat3 pathway in murine models of stroke. J Clin Invest, 2008. 118(1): p. 133-48.
Annexin V staining was performed to determine cell apoptosis using the Annexin V-FITC Apoptosis Detection Kit (Sigma-Aldrich) for 10 minutes at room temperature according to the manufacturer's instructions, and then flow cytometric analysis was performed.

In assay [2] the test system is cocaine-dependent WT mice. The assay is described as follows: Free-choice two-bottle drinking after chronic cocaine exposure. Format: in vivo, C57BL/6J mice. To be noted: WT mice after chronic cocaine exposure (15 mg/kg i.p., 7 days); sulfasalazine 15 mg/kg/day i.p. for 6 days during free-choice drinking; compared to vehicle.

On to `CNC(=O)c1cc(Oc2ccc(NC(=O)Nc3ccc(Cl)c(C(F)(F)F)c3)c(F)c2)ccn1` [regorafenib], for which the “daily alcohol consumption during free-choice drinking” value with alcohol-dependent mice was “significantly attenuated the daily alcohol consumption”. Besides, in assay [1], the “chronic alcohol exposure-induced apoptosis (TUNEL-positive cells) in brain” value is “inhibited apoptosis”. Further, in the assay with wild type cortical cells, the “substance-induced apoptosis in cortical cells” value was “significantly inhibited substance-induced apoptosis”.
For `CNC(=O)c1cc(Oc2ccc(NC(=O)Nc3ccc(Cl)c(C(F)(F)F)c3)cc2)ccn1` [sorafenib] the same measures were “significantly attenuated the daily alcohol consumption”, “inhibited apoptosis” and “significantly inhibited substance-induced apoptosis”.
As to `O=C(O)c1cc(/N=N/c2ccc(S(=O)(=O)Nc3ccccn3)cc2)ccc1O` [sulfasalazine], the “daily alcohol consumption during free-choice drinking” value in the assay with alcohol-dependent mice is “significantly attenuated the daily alcohol consumption”. Also, the “cocaine preference and craving behaviours” value in assay [2] was “fully inhibited cocaine preference and craving behaviours”. In the assay with wild type cortical cells, the “substance-induced apoptosis in cortical cells” value is “significantly inhibited substance-induced apoptosis”.
